The record followed here is US20240240224A1, “FLUORESCENT D-TYPE AMINO ACID METABOLISM MARKER-BASED METHOD FOR DETECTING ANTIBACTERIAL DRUG SENSITIVITY TEST” (priority 2020, published 2024).

Values after ≈ are worked out from the molar mass of the structure shown. Some results are limits rather than exact numbers.

One assay deals with S. aureus ATCC29213. The experiment in a line: BMD susceptibility test. It counts as cell-based, Staphylococcus aureus. The note with it: unit assumed.
Another assay relates to E. faecium Ef26. The experiment in a line: FaAST (FDAA metabolic labeling method). It counts as cell-based, Enterococcus faecium. The following applies: unit assumed. Put shortly:
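Bacteria at OD600=0.05 in CAMHB exposed to antibiotic concentration gradients with Cy5-DAA probe […], 2 h in the dark. Fluorescence read by flow cytometry after PBS dilution; MIC taken from the curve of fluorescence intensity versus antibiotic concentration.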

Another assay concerns E. coli Ec13. Briefly: BMD susceptibility test. The note with it: unit assumed. It counts as cell-based, Escherichia coli.
Another assay concerns Ec ATCC 25922. Briefly: BMD susceptibility test. It counts as cell-based, Escherichia coli. The following applies: unit assumed.
The test system of the next assay is Pa ATCC 27853. The experiment in a line: BMD susceptibility test. It counts as cell-based, Pseudomonas aeruginosa. The note with it: unit assumed.
A further assay deals with A. baumannii Ab16. Briefly: BMD susceptibility test. It counts as cell-based, Acinetobacter baumannii. The note with it: unit assumed.
Assay [1] has as its system K. pneumoniae Kp9. The experiment in a line: BMD susceptibility test. It counts as cell-based, Klebsiella pneumoniae. The note with it: unit assumed.
Another assay deals with K. pneumoniae Kp6. Briefly: FaAST (FDAA metabolic labeling). It counts as cell-based, Klebsiella pneumoniae. The note with it: unit assumed. Put shortly:
(§1)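 Bacteria at OD600=0.05 in CAMHB mixed with antibiotic dilutions plus Cy5-DAA probe at 0.15 mM final, then incubated 2 h in the dark. Cell-wall labeling fluorescence measured by flow cytometry after PBS dilution.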

The subject of assay [2] is K. pneumoniae Kp9. The experiment in a line: FaAST (FDAA metabolic labeling). It counts as cell-based, Klebsiella pneumoniae. The note with it: unit assumed. Put shortly: as §1
Assay [3] deals with bacteria contained in alveolar lavage fluid. Briefly: Vitek 2 drug sensitivity test of alveolar lavage fluid. On Sensibility: key: S: Drug sensitive; R: Drug resistance. It counts as cell-based.
Assay [4] deals with alveolar lavage fluid sample 0130, A. baumannii. Briefly: BMD susceptibility test of patient alveolar lavage fluid. It counts as cell-based, Acinetobacter baumannii. The following applies: unit assumed. From the text:
(§2) The results of antimicrobial susceptibility test of alveolar lavage fluid of seven patients using FDAA and BMD methods are shown in the following table. The drug-resistant bacteria are shown in bold.

For assay [5], the system named is alveolar lavage fluid sample 0206, A. baumannii. Described as above. The note with it: unit assumed. It counts as cell-based, Acinetobacter baumannii.
Excerpt: as §2

Assay [6] deals with alveolar lavage fluid sample 0219, A. baumannii. The description is as above. It counts as cell-based, Acinetobacter baumannii. The following applies: unit assumed.
Excerpt: as §2

Assay [7] relates to alveolar lavage fluid sample 0203, K. pneumoniae. The experiment in a line: FaAST (FDAA) susceptibility test of patient alveolar lavage fluid. The following applies: unit assumed. It counts as cell-based, Klebsiella pneumoniae. An outline of the steps:
(§3)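 Patient BALF mixed 1:1 with double-strength CAMHB, then combined with antibiotics at graded concentrations and Cy5-DAA probe (0.15 mM final). Cultured 2 h in the dark, diluted in PBS, and per-sample fluorescence intensity read by flow cytometry as the susceptibility read-out.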

Assay [8] relates to alveolar lavage fluid sample 0226, K. pneumoniae. Described as above. It counts as cell-based, Klebsiella pneumoniae. The note with it: unit assumed. Put shortly: as §3
Assay [9] concerns Acinetobacter baumannii ABA19. The experiment in a line: FaAST with DAA-Tetra probe. It counts as cell-based. The following applies: unit assumed. The procedure: (§4) The specific experimental steps are as follows: • 1. The tested colonies cultured overnight on the plate were picked and mixed thoroughly in 2× Cation-Adjusted Mueller Hinton Broth medium (2×CAMHB) to make bacterial suspension with turbidity of OD600=0.1. • 2. […] Add 50 μL of the bacterial solution prepared in step 1 (the final concentration of the bacterial solution is OD600=0.05) to the 96-well plate, and add 5 μL of 3 mM DAA-Tetra probe (the final concentration is 0.15 mM), mix well, and incubate in the dark at 37° C. 120 rpm for 2 hours. • 4. After culture, dilute the mixed bacterial solution 10 times with PBS solution, and detect the fluorescence intensity of each sample with flow cytometry. The flow detection result is shown in FIG. 14-19, and the arrow is for the MIC value. The minimum inhibitory concentration of antibiotics was obtained according to the fluorescence signal intensity of flow detection, and the statistical results are shown in Table 6.

The subject of assay [10] is Enterococcus faecium EFM26. The experiment in a line: FaAST with DAA-Tetra probe. It counts as cell-based. The note with it: unit assumed. The procedure: as §4
The test system of assay [11] is Pseudomonas aeruginosa PAE2. The experiment in a line: FaAST with DAA-Tetra probe. It counts as cell-based. The note with it: unit assumed. Here is the method: as §4
Assay [12] relates to Acinetobacter baumannii ABA19. Briefly: VITEK drug sensitivity test. The note with it: unit assumed. It counts as cell-based.
In assay [13] the test system is Pseudomonas aeruginosa PAE853. The experiment in a line: VITEK drug sensitivity test. The following applies: unit assumed. It counts as cell-based.

As a reminder, the MIC is the least concentration at which growth counts as inhibited. In the case of `C[C@H]1COc2c(N3CCN(C)CC3)c(F)cc3c(=O)c(C(=O)O)cn1c23` [Levofloxacin, levofloxacin], the BMD (MIC) with S. aureus ATCC29213 was at most 0.25 µg/mL; with E. coli Ec13 it was 4 µg/mL; in the assay on Ec ATCC 25922, at most 0.25 µg/mL; with Pa ATCC 27853, 0.5 µg/mL; in the assay on A. baumannii Ab16, 16 µg/mL; with K. pneumoniae Kp9 [1], 32 µg/mL. For the same compound, the figures for the BMD (MIC) in assay [4], in assay [5] and in assay [6] were 64 µg/mL, 32 µg/mL and 32 µg/mL, respectively. For the same compound, the FaAST (MIC) is 64 µg/mL in the assay on E. faecium Ef26; 0.5 µg/mL in the assay on K. pneumoniae Kp6; 128 µg/mL in the assay with K. pneumoniae Kp9 [2]; 0.25 µg/mL in assay [7]; 0.25 µg/mL in assay [8]. In assay [3], this compound yielded a minimum inhibitory concentration (MIC) of at least 8 µg/mL. For the same compound, in [3], the Sensibility entry is given as “R”. The MIC, FaAST in assay [9] came to 0.5 µg/mL (≈ 1.38 µM); in assay [10], 64 µg/mL (≈ 177 µM); in assay [11], 0.5 µg/mL (≈ 1.38 µM). Also, the MIC, VITEK was at most 0.25 µg/mL in [12] and 0.5 µg/mL (≈ 1.38 µM) in assay [13].
